Earlier results as cited in patent US6551555B2, “Apparatus with a chemical indicator for indicating exposure to an oxidative sterilant or disinfectant” (Ethicon, Inc., priority 1997, dated 2003).

Conditions: Sigma-Aldrich catalog number 229288

In the case of `CN(C)c1ccc(C(=C2C=CC(=[N+](C)C)C=C2)c2ccc(N(C)C)cc2)cc1` [crystal violet], the toxicity hazards is given as “toxic and may cause cancer, heritable genetic damage and irritate the eyes, respiratory system and skin”.
